Data published in patent US20260022143A1, “Cyclic Peptide Inhibitors of IL-23” (JANSSEN PHARMACEUTICA NV, priority 2022, published 2026).
Where a name gives a salt, the structure may show the parent alone. Starred links: 1 amine or outer side, 2 acyl side, 3 side chain; linkers in the order of their positions; H or OH if unused. Positions of bridges follow the written chain, without caps; N, C: chain ends. Non-standard residues stand in square brackets, D forms with d. Residues, ends and D or L forms follow the SMILES beside them. Groups on a side chain read outwards from the residue. *: point of attachment. Ala(1-Me-3-pyridinium) = C[n+]1cccc(C[C@H](N)C(=O)O)c1; PEG12 = NCCOCCOCCOCCOCCOCCOCCOCCOCCOCCOCCOCCOCCC(=O)O; Trp(7-Me) = Cc1cccc2c(C[C@H](N)C(=O)O)c[nH]c12; PEG9 = NCCOCCOCCOCCOCCOCCOCCOCCOCCOCCC(=O)O; Dab(NMeAc) = CC(=O)N(C)CC[C@H](N)C(=O)O; Ac6c(4,4-F2) = NC1(C(=O)O)CCC(F)(F)CC1; 2Nal = N[C@@H](Cc1ccc2ccccc2c1)C(=O)O; AEF = NCCOc1ccc(C[C@H](N)C(=O)O)cc1; X79 = CN1CCC(N[*:1])(C(=O)[*:2])CC1; PEG6 = NCCOCCOCCOCCOCCOCCOCCC(=O)O; 3Pal = N[C@@H](Cc1cccnc1)C(=O)O; Lys(Me) = CNCCCC[C@H](N)C(=O)O; Pen = CC(C)(S)[C@H](N)C(=O)O; Thp = NC1(C(=O)O)CCOCC1; Me2NCH2CH2 = CN(C)CC*; Tfa = O=C(C(F)(F)F)*; Sar = CNCC(=O)O; CHF2 = FC(F)*; X2 = CNCC*

Experiment: Exposed Polar Surface Area (EPSA)
Format: physicochemical
Conditions: SFC on Chirex 3014 column; sample 1 mM DMSO stock; read-out: EPSA
How it was run: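 Chirex 3014 column, 35 °C, 4 mL/min; CO2/MeOH + 20 mM NH4 formate, 5→60% modifier at 20%/min. UV/MS detection. EPSA (Å^2) from retention time vs 8-standard calibration line; duplicates; 1 mM DMSO stock injected undiluted.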

Row | SMILES | EPSA [A^2]
1 | CC(=O)NCCCC[C@@H]1NC(=O)[C@H](Cc2c[nH]c3c(C)cccc23)NC(=O)[C@H]([C@@H](C)O)NC(=O)[C@H](CC(N)=O)NC(=O)[C@@H](NC(=O)[C@@H](CCCNC(=N)N)NC(=O)CCOCCOCCOCCOCCOCCOCCNC(C)=O)C(C)(C)SSC(C)(C)[C@@H](C(=O)N[C@@H](Cc2ccc(OCCN)cc2)C(=O)N[C@@H](Cc2ccc3ccccc3c2)C(=O)NC2(C(=O)N[C@@H](CCC(=O)O)C(=O)N[C@@H](CC(N)=O)C(=O)N[C@@H](Cc3cccnc3)C(=O)N(C)CC(N)=O)CCOCC2)NC1=O [compound 37] (Ac-[PEG6][dR][Pen]NT[Trp(7-Me)]K(Ac)[Pen][AEF][2Nal][Thp]EN[3Pal][Sar]-NH2; disulfide 3-8 (inferred)) | 174
2 | CC(=O)NCCCC[C@@H]1NC(=O)[C@H](Cc2c[nH]c3c(C)cccc23)NC(=O)[C@H]([C@@H](C)O)NC(=O)[C@H](CC(N)=O)NC(=O)[C@@H](NC(=O)[C@@H](CCCNC(=N)N)NC(=O)CCOCCOCCOCCOCCOCCOCCOCCOCCOCCOCCOCCOCCNC(C)=O)C(C)(C)SSC(C)(C)[C@@H](C(=O)N[C@@H](Cc2ccc(OCCN)cc2)C(=O)N[C@@H](Cc2ccc3ccccc3c2)C(=O)NC2(C(=O)N[C@@H](CCC(=O)O)C(=O)N[C@@H](CC(N)=O)C(=O)N[C@@H](Cc3cccnc3)C(=O)N(C)CC(N)=O)CCOCC2)NC1=O [compound 38] (Ac-[PEG12][dR][Pen]NT[Trp(7-Me)]K(Ac)[Pen][AEF][2Nal][Thp]EN[3Pal][Sar]-NH2; disulfide 3-8) | 172
3 | CC(=O)NCCCC[C@@H]1NC(=O)[C@H](Cc2c[nH]c3c(C)cccc23)NC(=O)[C@H]([C@@H](C)O)NC(=O)[C@H](CC(N)=O)NC(=O)[C@@H](NC(=O)[C@@H](CCCCNC(=O)CCOCCOCCOCCOCCOCCOCCOCCOCCOCCOCCOCCOCCNC(C)=O)NC(C)=O)C(C)(C)SSC(C)(C)[C@@H](C(=O)N[C@@H](Cc2ccc(OCCN)cc2)C(=O)N[C@@H](Cc2ccc3ccccc3c2)C(=O)NC2(C(=O)N[C@@H](CCCCNC(C)=O)C(=O)N[C@@H](CC(N)=O)C(=O)N[C@@H](Cc3cccnc3)C(=O)N(C)CC(N)=O)CCOCC2)NC1=O [compound 40] (Ac-[dK]([PEG12-Ac])[Pen]NT[Trp(7-Me)]K(Ac)[Pen][AEF][2Nal][Thp]K(Ac)N[3Pal][Sar]-NH2; disulfide 2-7) | 156
4 | CC(=O)NCCCC[C@@H]1NC(=O)[C@H](Cc2c[nH]c3c(C)cccc23)NC(=O)[C@H]([C@@H](C)O)NC(=O)[C@H](CC(N)=O)NC(=O)[C@@H](NC(=O)[C@@H](CCCNC(=N)N)NC(=O)CCOCCOCCOCCOCCOCCOCCOCCOCCOCCNC(C)=O)C(C)(C)SSC(C)(C)[C@@H](C(=O)N[C@@H](Cc2ccc(OCCN)cc2)C(=O)N[C@@H](Cc2ccc3ccccc3c2)C(=O)NC2(C(=O)N[C@@H](CCC(=O)O)C(=O)N[C@@H](CC(N)=O)C(=O)N[C@@H](Cc3cccnc3)C(=O)N(C)CC(N)=O)CCOCC2)NC1=O [compound 43] (Ac-[PEG9][dR][Pen]NT[Trp(7-Me)]K(Ac)[Pen][AEF][2Nal][Thp]EN[3Pal][Sar]-NH2; disulfide 3-8) | 173
5 | CNCCOc1ccc(C[C@H](NC(=O)[C@H]2NC(=O)[C@H](CCCCNC(C)=O)NC(=O)[C@H](Cc3c[nH]c4c(C)cccc34)NC(=O)[C@H]([C@@H](C)O)NC(=O)[C@H](CC(N)=O)NC(=O)[C@@H](NC(C)=O)C(C)(C)SSC2(C)C)C(=O)N[C@@H](Cc2ccc3ccccc3c2)C(=O)NC2(C(=O)N[C@@H](CCCCNC(C)=O)C(=O)N[C@@H](CC(N)=O)C(=O)N[C@@H](Cc3cccnc3)C(=O)N(C)CC(N)=O)CCOCC2)cc1 [compound 47] (Ac-[Pen]NT[Trp(7-Me)]K(Ac)[Pen]Y(X2)[2Nal][Thp]K(Ac)N[3Pal][Sar]-NH2; disulfide 1-6 (inferred)) | 154
6 | CNC(=O)C[C@H](NC(=O)[C@H](CCCCNC(C)=O)NC(=O)C1(NC(=O)[C@H](Cc2ccc3ccccc3c2)NC(=O)[C@H](Cc2ccc(OCCN)cc2)NC(=O)[C@H]2NC(=O)[C@H](CCCCNC(C)=O)NC(=O)[C@H](Cc3c[nH]c4c(C)cccc34)NC(=O)[C@H]([C@@H](C)O)NC(=O)[C@H](CC(N)=O)NC(=O)[C@@H](NC(C)=O)C(C)(C)SSC2(C)C)CCOCC1)C(=O)N[C@@H](Cc1cccnc1)C(=O)N(C)CC(N)=O [compound 48] (Ac-[Pen]NT[Trp(7-Me)]K(Ac)[Pen][AEF][2Nal][Thp]K(Ac)D(NHMe)[3Pal][Sar]-NH2; disulfide 1-6) | 184
7 | CC(=O)NCCCC[C@@H]1NC(=O)[C@H](Cc2c[nH]c3c(C)cccc23)NC(=O)[C@H]([C@@H](C)O)NC(=O)[C@H](CC(N)=O)NC(=O)[C@@H](NC(=O)C(F)(F)F)C(C)(C)SSC(C)(C)[C@@H](C(=O)N[C@@H](Cc2ccc(OCCN)cc2)C(=O)N[C@@H](Cc2ccc3ccccc3c2)C(=O)NC2(C(=O)N[C@@H](CCCCNC(C)=O)C(=O)N[C@@H](CC(N)=O)C(=O)N[C@@H](Cc3cccnc3)C(=O)N(C)CC(N)=O)CCOCC2)NC1=O [compound 49] (Tfa-[Pen]NT[Trp(7-Me)]K(Ac)[Pen][AEF][2Nal][Thp]K(Ac)N[3Pal][Sar]-NH2; disulfide 1-6) | 164
8 | CC(=O)NCCCC[C@@H]1NC(=O)[C@H](Cc2c[nH]c3c(C)cccc23)NC(=O)[C@H]([C@@H](C)O)NC(=O)[C@H](CC(N)=O)NC(=O)[C@@H](NC(=O)C(F)(F)F)C(C)(C)SSC(C)(C)[C@@H](C(=O)N[C@@H](Cc2ccc(OCCN)cc2)C(=O)N[C@@H](Cc2ccc3ccccc3c2)C(=O)NC2(C(=O)N[C@@H](CCCCNC(C)=O)C(=O)N[C@@H](CC(N)=O)C(=O)N[C@@H](Cc3cccnc3)C(=O)N(C)CC(N)=O)CCC(F)(F)CC2)NC1=O [compound 50] (Tfa-[Pen]NT[Trp(7-Me)]K(Ac)[Pen][AEF][2Nal][Ac6c(4,4-F2)]K(Ac)N[3Pal][Sar]-NH2; disulfide 1-6 (inferred)) | 162
9 | CC(=O)NCCCC[C@H](NC(=O)C1(NC(=O)[C@H](Cc2ccc3ccccc3c2)NC(=O)[C@H](Cc2ccc(OCCN)cc2)NC(=O)[C@H]2NC(=O)[C@H](CCN(C)C(C)=O)NC(=O)[C@H](Cc3c[nH]c4c(C)cccc34)NC(=O)[C@H]([C@@H](C)O)NC(=O)[C@H](CC(N)=O)NC(=O)[C@@H](NC(=O)C(F)(F)F)C(C)(C)SSC2(C)C)CCOCC1)C(=O)N[C@@H](CC(N)=O)C(=O)N[C@@H](Cc1ccc[n+](C)c1)C(=O)N(C)CC(N)=O [compound 51] (Tfa-[Pen]NT[Trp(7-Me)][Dab(NMeAc)][Pen][AEF][2Nal][Thp]K(Ac)N[Ala(1-Me-3-pyridinium)][Sar]-NH2; disulfide 1-6) | 156
10 | CC(=O)NCCCC[C@@H]1NC(=O)[C@H](Cc2c[nH]c3c(C)cccc23)NC(=O)[C@H]([C@@H](C)O)NC(=O)[C@H](CC(N)=O)NC(=O)[C@@H](NC(=O)C(F)(F)F)C(C)(C)SSC(C)(C)[C@@H](C(=O)N[C@@H](Cc2ccc(OCCN(C)C)cc2)C(=O)N[C@@H](Cc2ccc3ccccc3c2)C(=O)NC2(C(=O)N[C@@H](CCCCNC(C)=O)C(=O)N[C@@H](CC(N)=O)C(=O)N[C@@H](Cc3cccnc3)C(=O)N(C)CC(N)=O)CCOCC2)NC1=O [compound 53] (Tfa-[Pen]NT[Trp(7-Me)]K(Ac)[Pen]Y(Me2NCH2CH2)[2Nal][Thp]K(Ac)N[3Pal][Sar]-NH2; disulfide 1-6 (inferred)) | 155
11 | CC(=O)NCCCC[C@@H]1NC(=O)[C@H](Cc2c[nH]c3c(C)cccc23)NC(=O)[C@H]([C@@H](C)O)NC(=O)[C@H](CC(N)=O)NC(=O)[C@@H](NC(=O)C(F)(F)F)C(C)(C)SSC(C)(C)[C@@H](C(=O)N[C@@H](Cc2ccc(OC(F)F)cc2)C(=O)N[C@@H](Cc2ccc3ccccc3c2)C(=O)NC2(C(=O)N[C@@H](CCCCNC(C)=O)C(=O)N[C@@H](CC(N)=O)C(=O)N[C@@H](Cc3cccnc3)C(=O)N(C)CC(N)=O)CCOCC2)NC1=O [compound 54] (Tfa-[Pen]NT[Trp(7-Me)]K(Ac)[Pen]Y(CHF2)[2Nal][Thp]K(Ac)N[3Pal][Sar]-NH2; disulfide 1-6 (inferred)) | 156
12 | CC(=O)NCCCC[C@@H]1NC(=O)[C@H](Cc2c[nH]c3c(C)cccc23)NC(=O)[C@H]([C@@H](C)O)NC(=O)[C@H](CC(N)=O)NC(=O)[C@@H](NC(=O)C(F)(F)F)C(C)(C)SSC(C)(C)[C@@H](C(=O)N[C@@H](Cc2ccc(OCCN)cc2)C(=O)N[C@@H](Cc2ccc3ccccc3c2)C(=O)NC2(C(=O)N[C@@H](CCCCNC(C)=O)C(=O)N[C@@H](CC(N)=O)C(=O)N[C@@H](Cc3cccnc3)C(=O)N(C)CC(N)=O)CCN(C)CC2)NC1=O [compound 55] (Tfa-[Pen]NT[Trp(7-Me)]K(Ac)[Pen][AEF][2Nal][X79]K(Ac)N[3Pal][Sar]-NH2; disulfide 1-6 (inferred)) | 159
13 | CC(=O)NCCCC[C@@H]1NC(=O)[C@H](Cc2c[nH]c3c(C)cccc23)NC(=O)[C@H]([C@@H](C)O)NC(=O)[C@H](CC(N)=O)NC(=O)[C@@H](NC(C)=O)C(C)(C)SSC(C)(C)[C@@H](C(=O)N[C@@H](Cc2ccc(OCCN)cc2)C(=O)N[C@@H](Cc2ccc3ccccc3c2)C(=O)NC2(C(=O)N[C@@H](CCCCN(C)C(C)=O)C(=O)N[C@@H](CC(N)=O)C(=O)N[C@@H](Cc3cccnc3)C(=O)N(C)CC(N)=O)CCOCC2)NC1=O [compound 59] (Ac-[Pen]NT[Trp(7-Me)]K(Ac)[Pen][AEF][2Nal][Thp][Lys(Me)](Ac)N[3Pal][Sar]-NH2; disulfide 1-6 (inferred)) | 166
14 | CC(=O)NCCCC[C@H](NC(=O)C1(NC(=O)[C@H](Cc2ccc3ccccc3c2)NC(=O)[C@H](Cc2ccc(OCCN)cc2)NC(=O)[C@H]2NC(=O)[C@H](CCC(=O)N(C)C)NC(=O)[C@H](Cc3c[nH]c4c(C)cccc34)NC(=O)[C@H]([C@@H](C)O)NC(=O)[C@H](CC(N)=O)NC(=O)[C@@H](NC(=O)C(F)(F)F)C(C)(C)SSC2(C)C)CCOCC1)C(=O)N[C@@H](CC(N)=O)C(=O)N[C@@H](Cc1cccnc1)C(=O)N(C)CC(N)=O [compound 61] (Tfa-[Pen]NT[Trp(7-Me)]E(NMe2)[Pen][AEF][2Nal][Thp]K(Ac)N[3Pal][Sar]-NH2; disulfide 1-6 (inferred)) | 159
